The subject of test [1] is MCF-7. In words: Antagonist activity at estrogen receptor in Homo sapiens (human) MCF-7 cells assessed as potentiation of fluvestrant-induced reduction in [3H]thymidine incorporation at 3.13 to 6.25 uM aftestrogen receptor 72 hr by liquid scintillation counting. Type of test: cell-based. Background: Uptake of a labelled nucleoside into DNA is a usual measure of proliferation.

The subject of test [2] is MCF-7. In words: Antagonist activity at estrogen receptor in Homo sapiens (human) MCF-7 cells assessed as potentiation of 4-hydroxytamoxifen-induced reduction in [3H]thymidine incorporation aftestrogen receptor 72 hr by liquid scintillation counting. In kind it is cell-based.
For test [3], the system named is MCF-7. Nature of the test: Antagonist activity at estrogen receptor in Homo sapiens (human) MCF-7 cells assessed as inhibition of 17betaestradiol-induced [3H]thymidine incorporation at 0.1 to 0.78 uM aftestrogen receptor 72 hr by liquid scintillation counting. Type of test: cell-based.
Test [4] concerns MCF-7. Nature of the test: Agonist activity at estrogen receptor in Homo sapiens (human) MCF-7 cells grown in stestrogen receptoroid free RPMI medium assessed as incorporation of [3H]thymidine at 0.1 to 0.2 uM aftestrogen receptor 72 hr by liquid scintillation counting. Type of test: cell-based.
In test [5] the test system is MDA-MB-231. In words: Antiproliferative activity against Homo sapiens (human) ER-deficient MDA-MB-231 cells grown in steroid free RPMI medium assessed as inhibition of [3H]thymidine incorporation at 3.13 to 100 uM after 72 hr by liquid scintillation counting. In kind it is functional, cell-based.
Test [6] deals with MCF-7. In words: Antagonist activity at estrogen receptor in Homo sapiens (human) MCF-7 cells grown in stestrogen receptoroid free RPMI medium assessed as inhibition of [3H]thymidine incorporation at 3.13 to 100 uM aftestrogen receptor 72 hr by liquid scintillation counting. Type of test: cell-based.
Test [7] relates to MDA-MB-231. Nature of the test: Cytotoxicity against Homo sapiens (human) ER-deficient MDA-MB-231 cells grown in steroid free RPMI medium at 3.13 to 100 uM after 72 hr by SRB assay. In kind it is functional, cell-based. In general terms: Sulforhodamine B stains cellular protein and so reports cell mass.
Test [8] relates to MDA-MB-231. In words: Cytotoxicity against Homo sapiens (human) ER-deficient MDA-MB-231 cells grown in RPMI medium at 3.13 to 100 uM after 48 hr by SRB assay. In kind it is functional, cell-based.
The subject of test [9] is MCF7. Nature of the test: Inhibition of ER in Homo sapiens (human) MCF-7 cells grown in steroid free RPMI medium assessed as cell death at 3.13 to 100 uM after 72 hr by SRB assay. Type of test: functional, cell-based.
The test system of test [10] is MCF-7. Nature of the test: Inhibition of estrogen receptor in Homo sapiens (human) MCF-7 cells grown in RPMI medium assessed as cell death at 3.13 to 100 uM aftestrogen receptor 48 hr by SRB assay. Type of test: cell-based.
Test [11] concerns MCF7. In words: Cytotoxicity against Homo sapiens (human) MCF-7 cells expressing ER after 48 hr by SRB assay. Type of test: functional.
The subject of test [12] is MDA-MB-231. Nature of the test: Cytotoxicity against Homo sapiens (human) ER-deficient MDA-MB-231 cells after 48 hr by SRB assay. Type of test: functional.

Active and inactive are the calls of the source. The rule behind the calls is not given here.

Turning to `CC(C)=CCOc1cc2oc(-c3ccccc3)cc(=O)c2c(O)c1O`, the outcome in [1], in test [4], in [5], in [7] and in [8] was Active. Also, the Activity result in test [2], in [11] and in [12] was “Dose-dependent effect” each time. In addition, the inhibition result in test [3], in test [6] and in [9] was “Active” in each case. Further, in [10], the inhibition entry was “inactive”. Moreover, the 50% growth inhibitory concentration (GI50) (as a rule, the concentration at which growth is held to half of that of the control) in test [11] (MCF7, 48 h) came to 11.2 µM; in test [12] (MDA-MB-231, 48 h), 29.7 µM.

Values taken from ChEMBL document CHEMBL3045380, “Effects of a prenyl-baicalein derivative on ER (+) MCF-7 and ER () MDA-MB-231 breast tumor cell lines” (2012).
